From patent US10106778B2, “Selective targeting of cancer stem cells” (Whitehead Institute for Biomedical Research, priority 2012, dated 2018)

Key:
Assay type in all cases: cell-based, human
[1] = tested on: p-B-Raf, p-c-Raf, p-MEK1/2 and p-ERK1/2; assay: Western blot of MAPK/ERK signaling in NAMECs; conditions: 30 min
Experimental: (§1) To obtain protein extracts, cells were scraped from culture dishes in chilled PBS, centrifuged at 450×g for 4 min at 4° C., washed again in PBS, and incubated for 20 min in ice cold lysis buffer containing freshly added protease inhibitors (0.5 mM phenylmethylsulfonyl fluoride, 10 μg/ml leupeptin, 2 μg/ml aprotonin). Lysates were cleared by centrifugation at 12,100×g, 4° C. for 10 min and the supernatant was snap frozen in liquid nitrogen. Protein concentrations were determined using Bradford Dye (Bio-Rad). 30 μg total protein was separated by SDS-PAGE on NuPAge gels (Invitrogen), and transferred to Hybond-P PVDF membrane (GE Healthcare). The membrane was probed with specific primary antibodies and antibody-protein complex detected by HRP-conjugated antibodies and ECL-Plus (Amersham Biosciences).
We assessed whether mesenchymal cells contained higher Ras expression or activated Ras. […] We assessed whether enhanced ERK signaling in the mesenchymal cell state was primarily mediated through the activated PDGFR and PKCα signaling cascade, rather than through activation via a Ras-Raf pathway. To test this, we exposed NAMECs to PKCα-specific inhibitors for 30 min. This reduced p-B-Raf and p-c-Raf expression, and led to the loss of p-MEK1/2 and p-ERK1/2 (FIG. 5F). […] Therefore, the enhanced activity of ERK signaling during EMT was, in part, conferred by signaling through PDGFR and PKCα.

p-FRA1^S265 = assay: Western blot of FRA1 phosphorylation in NAMECs; conditions: applied to NAMECs for 30 min
Experimental: as §1
FRA1 is a member of the Fos family of transcription factors, which is also comprised of c-Fos, FosB and Fra2. Together with the Jun family of transcription factors composed of c-Jun, JunB and JunD, individual members of the Fos and Jun family associate with one another to form heterodimeric activator protein-1 (AP-1) complexes that bind and transcriptionally regulate target gene expression when phosphorylated (Eferl and Wagner, 2003).
We assessed whether the observed increased p-FRA1 activity in the mesenchymal cells could be further augmented by elevated ERK signaling during EMT. Accordingly, inhibition of ERK1/2 phosphorylation with a MEK inhibitor was able to decrease p-FRA1^S265 levels by 65% but not the levels of total FRA1 or p-c-Jun (FIG. 5G), confirming that ERK1/2 signaling promoted p-FRA1 activity.

[2] = tested on: p-PKCα^S497 and p-PKCα^T638; assay: Western blot of PKCα phosphorylation in NAMECs
Experimental: as §1
We subsequently sought to determine whether PKCα activation was directly dependent upon PDGFR-PLCγ. Exposure of NAMECs to a PLCγ inhibitor (U73122) reduced active p-PKCα^S497 and p-PKCα^T638 by 1.3 and 3.1-fold respectively within 30 min, and 6.3 and 4.2-fold respectively by 60 min (FIG. 13C); total PKCα level was unchanged (FIG. 13C). The inhibition of PDGFR in NAMECs, similarly, led to a loss of PKCα phosphorylation (p-PKCα^S497: 2.8 fold, p-PKCα^T638: 5.9 fold), as illustrated once again by the loss of active p-PKCα^S497 and p-PKCα^T638 within 30 min, while total PKCα remained constant (FIG. 13D).

[3] = tested on: NAMEC-Tom-Ras and HMLE-GFP-Ras cells; assay: Co-mixed NAMEC-Tom-Ras (CSC-enriched) and HMLE-GFP-Ras (CSC-depleted) cells, kinase inhibition, FACS; conditions: dose response, co-mixed cells
Experimental: (§2) Kinase inhibitors and other chemical compounds were obtained from various sources listed below. These were dissolved or diluted in DMSO. To set up the screen, 75,000 NAMEC-Tom and 15,000 HMLE-GFP cells were seeded into each well of a 6-well tissue culture plate. The following day, spent media was replaced with 3 ml of fresh media. Inhibitors were added to achieve the desired range of concentrations. For control treatment, DMSO was added. Fresh media containing inhibitors were replaced daily during the six day period. For analysis, cells were trypsinized with 1 ml 0.15% trypsin, diluted with 1 ml serum-containing media and fixed with 1 ml of 4% paraformaldehyde. FACS analysis was performed to analyze the proportion of surviving cells relative to DMSO-treated control for NAMEC-Tom or HMLE-GFP cells. To test the effects of these inhibitors on CSCs and non-CSCs, NAMEC-Ras-Tom and […] were used in similar co-mixed experiments.
as §2, with “experiments. To assess the fraction of cells undergoing apoptosis, cells were exposure to agents for three days without fresh media and then analyzed with Annexin V-APC (BD Biosciences).” for “experiments.”
Having determined that NAMEC-Ras cells were enriched for CSCs, we mixed NAMEC-Ras cells labeled with tdTomato (NAMEC-Tom-Ras) and HMLE-Ras cells labeled with GFP (HMLE-GFP-Ras) and re-tested the effects of kinase inhibition as described above. […] In addition, these NAMEC-Tom-Ras cells were more resistant to paclitaxel (11.3 fold) and staurosporine (32.8 fold) than the corresponding HMLE-GFP-Ras cells used as controls (FIG. 3C).

p-PLCγ1^Y783 = assay: Western blot of PLCγ1 phosphorylation in NAMECs; conditions: 5 μM, within 30 min
Experimental: as §1
(§3) Protein levels of both phospholipase Cγ1 and 2 (PLCγ1 and PLCγ2), which transduce signals from PDGFRα/β to PKCα, were also elevated in these cells by an average of 4.57 and 2.38-fold, respectively (FIG. 4E). To test whether PLCγ is being activated by PDGFR through phosphorylation, NAMECs were treated with PDGFR inhibitors.

p-PLCγ2^Y1217 = assay: Western blot of PLCγ2 phosphorylation in NAMECs; conditions: 5 μM, within 30 min
Experimental: as §1, §3

Q: What does the source list for `COc1cc2ncnc(N3CCN(C(=O)Nc4ccc(Oc5ccccc5)cc4)CC3)c2cc1OC` [PDGFR Inh III]?
A: effect on phospho-proteins of ERK signaling [1]: downregulation of B-Raf and C-Raf phosphorylation, and dampening ERK signaling; effect on phosphorylation of FRA1 (p-FRA1^S265): blocked the phosphorylation of FRA1; effect on PKCα phosphorylation [2]: reduced phosphorylation of PKCα; which cell type is more sensitive / selected against [3]: NAMEC-Ras-Tom cells were more sensitive; effect on p-PLCγ1^Y783 (p-PLCγ1^Y783): reduced; effect on p-PLCγ2^Y1217 (p-PLCγ2^Y1217): reduced
